For 6 compounds, MIC results are on record in DBAASP.

As usually defined, the MIC is the smallest concentration in the dilution series that meets the test's criterion for growth inhibition.

Common to all, as to assay: ≥ marks a high value that may be exact or a test limit, other limits are often not marked, values filed in µg/mL are converted to µM
For experiment [1], the system named is Staphylococcus carnosus KHS.
The subject of experiment [2] is Escherichia coli ATCC 25922.
Experiment [3] has as its system Rhodococcus rhodochrous X15.
The subject of experiment [4] is Bacillus licheniformis X39.
Experiment [5] relates to Enterococcus faecalis 981.
For experiment [6], the system named is Staphylococcus aureus ATCC 25923.
For experiment [7], the system named is Enterococcus faecium 091299.
Experiment [8] relates to Candida albicans ATCC 2002.
The test system of experiment [9] is Psychrobacter faecalis X29.
Experiment [10] concerns Staphylococcus aureus.
Experiment [11] relates to Pseudomonas aeruginosa.
Experiment [12] concerns Bacillus subtilis 168.
The test system of experiment [13] is Candida albicans F7-39/IDE99.
Experiment [14] relates to Escherichia coli B.
The test system of experiment [15] is Staphylococcus aureus AB94004.
Experiment [16] concerns Bacillus magaterium AB90008.
Experiment [17] concerns Micrococcus luteus AB2010179.
In experiment [18] the test system is Escherichia coli DH5alpha.
For experiment [19], the system named is Klebsiella pneumoniae ATCC 27736.
Experiment [20] concerns Salmonella enterica AB2010185.
Experiment [21] deals with Pseudomonas aeruginosa ATCC BAA-427.
The subject of experiment [22] is Pseudomonas putida.
The test system of experiment [23] is Staphylococcus aureus ATCC 33591.
In experiment [24] the test system is Enterobacter cloacae AB2010162.
For experiment [25], the system named is Pseudomonas fluorescens.
In experiment [26] the test system is Acinetobacter baumannii ATCC 19606.
The test system of experiment [27] is Escherichia coli ATCC 25726.
Experiment [28] deals with Staphylococcus aureus 127/08.
Experiment [29] relates to Stenotrophomonas maltophilia B32/4.
In experiment [30] the test system is Acinetobacter baumannii NM8.
Experiment [31] relates to Stenotrophomonas maltophilia B32/1.
Experiment [32] concerns Corynebacterium xerosis C875.
The subject of experiment [33] is Escherichia coli DC2.
Experiment [34] has as its system Staphylococcus epidermidis C621.
Experiment [35] deals with Escherichia coli UB1005.
Experiment [36] relates to Proteus mirabilis ATCC 25933.
Experiment [37] concerns Pseudomonas aeruginosa ATCC 15442.
Experiment [38] concerns Enterococcus faecalis ATCC 12953.
In experiment [39] the test system is Streptococcus pyogenes ATCC 19615.
The subject of experiment [40] is Klebsiella pneumoniae ATCC 13885.
The test system of experiment [41] is Salmonella enterica subsp. enterica serovar Typhimurium ATCC 14028.
Experiment [42] relates to Escherichia coli ATCC 8739.
The subject of experiment [43] is Bacillus subtilis ATCC 6633.
The subject of experiment [44] is Staphylococcus aureus ATCC 29213.

The structures appear in SMILES notation. ≈ marks a conversion by molar mass, not a printed value.

Take `CC[C@H](C)[C@H](NC(=O)[C@H](CC(C)C)NC(=O)[C@@H]1CCCN1C(=O)[C@H](CC(C)C)NC(=O)[C@@H](N)Cc1ccccc1)C(=O)N[C@@H](C)C(=O)N[C@@H](CO)C(=O)N[C@H](C(=O)N[C@@H](C)C(=O)N[C@@H](C)C(=O)N[C@@H](CC(N)=O)C(=O)N[C@@H](CC(C)C)C(=O)N[C@H](C(=O)N1CCC[C@H]1C(=O)N[C@@H](CCCCN)C(=O)N[C@H](C(=O)N[C@@H](Cc1ccccc1)C(=O)N[C@H]1CSSC[C@@H](C(=O)O)NC(=O)[C@H](CCCCN)NC(=O)[C@H](CCCCN)NC(=O)[C@H]([C@@H](C)O)NC(=O)[C@H]([C@@H](C)CC)NC(=O)[C@H](CCCCN)NC1=O)[C@@H](C)CC)C(C)C)C(C)C` [FLPLIASVAANLVPKIFCKITKKC]: the minimum inhibitory concentration (MIC) in [1] was 19 µM (≈ 49.7 µg/mL); in experiment [2], 150 µM (≈ 392 µg/mL); in [3], 1.2 µM (≈ 3.14 µg/mL); in experiment [4], 2.4 µM (≈ 6.28 µg/mL); in experiment [5], not below 75 µM; in experiment [6] it was 2.4 µM (≈ 6.28 µg/mL). Further, the MIC in experiment [7] is not below 37.5 µM; in experiment [8], 9.5 µM (≈ 24.9 µg/mL); in experiment [9], 9.5 µM (≈ 24.9 µg/mL).
Take `CC[C@H](C)[C@H](NC(=O)[C@H](Cc1cnc[nH]1)NC(=O)[C@H](CCCCN)NC(=O)[C@H](CC(C)C)NC(=O)[C@H](Cc1ccccc1)NC(=O)[C@H](CO)NC(=O)[C@H](CCSC)NC(=O)[C@H](Cc1c[nH]c2ccccc12)NC(=O)[C@H](CCCCN)NC(=O)CN)C(=O)N[C@@H](CC(C)C)C(=O)N[C@@H](CCCCN)C(N)=O` [GKWMSFLKHILK]: the MIC is 6.4 µM (≈ 9.52 µg/mL) in experiment [10]; 21.8 µM (≈ 32.4 µg/mL) in experiment [11]; 1.1 µM (≈ 1.64 µg/mL) in experiment [12]; 6.8 µM (≈ 10.1 µg/mL) in experiment [13]; 4 µM (≈ 5.95 µg/mL) in experiment [14].
`CC[C@H](C)[C@H](N)C(=O)N[C@@H](CC(C)C)C(=O)NCC(=O)N[C@@H](CCC(=O)O)C(=O)N[C@H](C(=O)N[C@@H](Cc1c[nH]c2ccccc12)C(=O)N[C@@H](CCCCN)C(=O)NCC(=O)N[C@H](C(=O)N[C@@H](CCCCN)C(=O)N[C@@H](CC(=O)O)C(=O)N[C@H](C(=O)N[C@@H](CC(C)C)C(N)=O)[C@@H](C)CC)[C@@H](C)CC)[C@@H](C)CC` [ILGEIWKGIKDIL]: the minimal inhibitory concentration (MIC) is not below 82 µM in experiment [15]; not below 41 µM in [16]; not below 82 µM in experiment [17]; not below 82 µM in experiment [18]; not below 100 µM in experiment [2]; not below 100 µM in [19]. For the same compound, the MIC is not below 82 µM in [20]; not below 100 µM in [21]; not below 82 µM in [22]; not below 100 µM in [6]; not below 100 µM in experiment [23]; not below 82 µM in experiment [24]. Further, the values for the MIC in [25] and in experiment [26] were not below 82 µM and more than 26.7 µM, respectively.
As to `CC[C@H](C)[C@@H]1NC(=O)[C@H](CCCCN)NC(=O)[C@@H](NC(=O)[C@H](C)NC(=O)[C@@H](NC(=O)[C@H](CC(C)C)NC(=O)[C@H](CC(=O)O)NC(=O)[C@@H](NC(=O)CNC(=O)[C@H](CC(C)C)NC(=O)[C@H](CCCCN)NC(=O)[C@H](C)NC(=O)[C@H](CC(C)C)NC(=O)[C@H](CC(=O)O)NC(=O)[C@H](CCCCN)NC(=O)CNC(=O)[C@H](CC(C)C)NC(=O)CNC(=O)[C@@H](N)CCCCN)C(C)C)C(C)C)CSSC[C@@H](C(=O)O)NC(=O)[C@H](CCC(N)=O)NC(=O)[C@H](CCCCN)NC(=O)[C@H](CO)NC1=O` [KGLGKDLAKLGVDLVACKISKQC], the MIC in [27] was not below 200 µM; in [28], not below 200 µM; in experiment [29], not below 200 µM; in experiment [6], more than 200 µM; in [30] it was not below 200 µM; in experiment [31] it was not below 200 µM.
As to `C[C@H](NC(=O)[C@H](C)NC(=O)[C@H](C)NC(=O)[C@H](Cc1cnc[nH]1)NC(=O)[C@H](C)NC(=O)[C@H](C)NC(=O)[C@H](C)NC(=O)[C@H](CCCCN)NC(=O)[C@@H](N)CCCCN)C(=O)N[C@@H](C)C(=O)N[C@@H](C)C(=O)N[C@@H](Cc1cnc[nH]1)C(=O)N[C@@H](C)C(=O)N[C@@H](C)C(=O)N[C@@H](Cc1c[nH]c2ccccc12)C(=O)N[C@@H](C)C(=O)N[C@@H](C)C(=O)N[C@@H](Cc1cnc[nH]1)C(=O)N[C@@H](C)C(=O)N[C@@H](C)C(=O)N[C@@H](C)C(=O)N[C@@H](CCCCN)C(=O)N[C@@H](CCCCN)C(=O)N[C@@H](CCCCN)C(=O)N[C@@H](CCCCN)C(N)=O` [KKAAAHAAAAAHAAWAAHAAAKKKK], the MIC in experiment [32] was not below 32 µM; in experiment [33] it was not below 64 µM; in experiment [34], not below 64 µM; in experiment [35] it was not below 64 µM.
For the compound `NCCCC[C@H](NC(=O)[C@@H](N)CCCCN)C(=O)N[C@@H](Cc1ccccc1)C(=O)N[C@@H](Cc1c[nH]c2ccccc12)C(=O)N[C@@H](CCC(=O)O)C(=O)N[C@@H](CC(=O)O)C(=O)N[C@@H](CC(=O)O)C(=O)NCC(N)=O` [KKFWEDDG], the minimum inhibitory concentration (MIC) in experiment [36] is not below 125 µM; in experiment [37], not below 250 µM; in experiment [38], not below 125 µM; in experiment [39] it was not below 125 µM; in experiment [40] it was not below 125 µM; in experiment [41], 125 µM (≈ 128 µg/mL). The figures for the minimal inhibitory concentration (MIC) in experiment [42], in experiment [43] and in experiment [44] were not below 250 µM, not below 250 µM and 250 µM (≈ 256 µg/mL), respectively.
